Tests used:
Assay type in all cases: biochemical
[1] = biological target: T1, Tie2 (Homo sapiens, UniProt Q02763); test: Tie2 kinase test, phosphorylation of PLC with GST-Tie2; settings: GST-Tie2 intracellular domain 776-1124
T1 construct: amino acids of the intracellular domain 776-1124; made in house; host or cells: baculovirus expression (pFastBacGT vector)
Protocol: The coding sequence of human Tie2 corresponding to the amino acids of the intracellular domain 776-1124 was generated by PCR using the cDNA isolated from a human placenta as a model. This sequence was introduced into a pFastBacGT baculovirus expression vector in the form of a GST fusion protein.
The inhibitory effect of the molecules is determined in a test of phosphorylation of PLC with Tie2 in the presence of GST-Tie2 purified to about 80% homogeneity. The substrate is composed of the SH2-SH3 fragments of PLC expressed in the form of a GST fusion protein.
The kinase activity of Tie2 is measured in a MOPS 20 mM pH 7.2 buffer, containing 10 mM MgCl2, 10 mM MnCl2, 1 mM DTT, 10 mM of glycerophosphate. In a 96-well FlashPlate plate maintained on ice, a reaction mixture is deposited, composed of 70 μL of kinase buffer containing 100 ng of enzyme GST-Tie2 per well. Next, 10 μL of the test molecule diluted in DMSO to a maximum concentration of 10% are added. For a given concentration, each measurement is performed four times. The reaction is initiated by adding 20 μL of solution containing 2 μg of GST-PLC, 2 μm of cold ATP and 1 μCi of ^33P[ATP]. After incubation for one hour at 37° C., the reaction is stopped by adding 1 volume (100 μl) of 200 mM EDTA. After removal of the incubation buffer, the wells are washed three times with 300 μL of PBS. The radioactivity is measured on a MicroBeta1450 Wallac.
The inhibition of the Tie2 activity is calculated and expressed as a percentage of inhibition relative to the control activity determined in the absence of compound.

[2] = biological target: T2, CDK2/cycline E (Homo sapiens, UniProt P24941); test: CDK2/cyclineE Flashplate test in 96-well format; settings: CDK2/cycline E complex, 1 μM ATP
T2 construct: made in house; host or cells: Sf21 insect cells (baculovirus coinfection)
Protocol: Two recombinant baculoviruses bearing the human sequences coding, respectively, for CDK2 and cyclineE (the latter bearing a C-terminal hexahistidine tag) are used to coinfect Sf21 insect cells. Two to three days after the start of coinfection, the cells are harvested by centrifugation and then stored at −40° C. until the time of use.
A format in streptavidin-coated 96-well plates is used to test the activity of the compounds on the kinase activity of CDK2/cycline E.
To perform this test, the biotinylated peptide substrate, a fragment of the protein pRb (biotinyl-[…]-OH), is dissolved at a concentration of 1 mM in kinase buffer (HEPES/NaOH 50 mM, NaCl 1 mM, MgCl2 5 mM, pH 7.5) in order to constitute a stock solution stored at −20° C. in the form of 110 μL aliquots. On the day of the experiment, an aliquot of this solution is thawed and diluted in kinase buffer containing 1 mM of dithiothreitol, added to the buffer extemporaneously, in order to obtain a concentration of 14.3 μM. 70 μL of this solution are added to each well of the Flashplate in order to obtain a final substrate concentration of 10 μM during the enzymatic reaction performed in a final volume of the reaction medium of 100 μL (cf. below).
Intermediate dilutions of inhibitors (products of the invention) at various concentrations are prepared in DMSO from stock solutions at 10 mM in separate tubes. Dilutions at 1000 μM, 333.3 μM, 111.1 μM, 37.03 μM, 12.35 μM, 4.11 μM and 1.37 μM are thus prepared. One μL of each of these solutions (or 1 μL of DMSO for the controls) is transferred into the wells of the test plate.
19 μl of a solution of a mixture of adenosine triphosphate (ATP) and of ATPγ^33P in kinase buffer at a total concentration of 5.26 μM of ATP and 52.6 μCi/ml of ^33P are then added to each well. The enzymatic reaction is initiated by adding 10 μL per well of a 200 nM solution of CDK2/cycline E in kinase buffer containing 1 mM of dithiothreitol (or 10 μL of kinase buffer containing 1 mM of dithiothreitol for the reaction blanks).
After addition of each of the reagents, the final volume of each well is 100 μL, the final concentration of substrate is 10 μM, the final inhibitor concentrations are 10 μM, 3.33 μM, 1.11 μM, 0.37 μM, 0.123 μM, 0.041 μM and 0.014 μM (according to the concentration of the intermediate dilution), the final ATP concentration is 1 μM, the final amount of ^33P is 1 μCi/well, and the final concentration of CDK2/cycline E complex is 20 nM.
After addition of all of the reagents, the test plate is incubated at 30° C. with orbital shaking at 650 rpm.
When the incubation is complete, the plate is washed three times with 300 μL per well of PBS (phosphate-buffered saline, pH=7.4, without calcium or magnesium, reference 10010-015, Gibco BRL). The incorporation of ^33P to the peptide is quantified by scintillation counting with a Packard Topcount.NXT machine.

[3] = biological target: T3, Aurora1 (Homo sapiens, UniProt Q96GD4); test: Aurora1 enzymatic test, NuMA phosphorylation with [33P]ATP, Flashplate; settings: Aurora-B/INCENP-C3 recombinant complex, 1 μM ATP
T3 construct: His tag (N); made in house
Protocol: (§1) The inhibitory effect of compounds with respect to the kinases Aurora1 and Aurora2 is determined by means of an enzymatic test using radioactivity detection.
(§2) The kinase activity of Aurora1 and Aurora2 is evaluated via the phosphorylation of the substrate Numa-histidine in the presence of radiolabelled ATP ([^33P]ATP) using 96-well Flashplate plates in which the nickel chelate is bound to the surface of the microplate. The amount of ^33P phosphate incorporated into the NuMA substrate is proportional to the activity of the enzyme Aurora1 or Aurora2.
Aurora1: Aurora-B/INCENP-C3 recombinant complex, purified to about 50%, the N-terminal end of Aurora-B of which has been labeled with histidine.
(§3) NuMA (nuclear protein that combines with the mitotic apparatus): 424-amino acid fragment, expressed in E. coli, the N-terminal end of which has been labeled with histidine, and used as substrate for the two Aurora enzymes.
(§4) The microplates used are 96-well Flash-Plate plates, nickel chelate (Perkin-Elmer, model SMP107).
(§5) The products to be evaluated are incubated in a reaction volume of 100 μL per well, in the presence of 10 nM of Aurora1 or Aurora2, 500 nM of NuMA substrate in a buffer composed of 50 mM Tris/HCl (pH 7.5), 50 mM NaCl, 5 mM MgCl2 (Aurora-B) or 10 mM MgCl2 (Aurora-A) and 1 mM DTT, at 37° C.
(§6) 80 μL of enzyme/substrate incubation buffer are distributed in each well, followed by 10 μL of product to be evaluated, at variable concentrations. The reaction is initiated by adding 1 μM final of ATP containing 0.2 μCi of [^33P]ATP (10 μL). After incubating for 30 minutes, the reaction is quenched by simple removal of the reaction buffer and each well is washed twice with 300 μl of Tris/HCl buffer. The radioactivity is then measured in each well using a Packard, Top-Count model scintillation machine.
(§7) The control enzymatic activity of Aurora is expressed by the number of counts per minute obtained over 30 minutes after subtracting the background noise (reaction mixture containing no enzyme). The evaluation of the various test products is expressed as a percentage of inhibition of the Aurora activity relative to the control.

[4] = biological target: T4, Aurora2 (Homo sapiens, UniProt O14965); test: Aurora2 enzymatic test, NuMA phosphorylation with [33P]ATP, Flashplate; settings: whole recombinant protein, 1 μM ATP
T4 construct: Aurora2: whole recombinant protein comprising an N-terminal histidine tail; His tag (N); made in house; host or cells: E. coli
T4 sequence (O14965 1-403): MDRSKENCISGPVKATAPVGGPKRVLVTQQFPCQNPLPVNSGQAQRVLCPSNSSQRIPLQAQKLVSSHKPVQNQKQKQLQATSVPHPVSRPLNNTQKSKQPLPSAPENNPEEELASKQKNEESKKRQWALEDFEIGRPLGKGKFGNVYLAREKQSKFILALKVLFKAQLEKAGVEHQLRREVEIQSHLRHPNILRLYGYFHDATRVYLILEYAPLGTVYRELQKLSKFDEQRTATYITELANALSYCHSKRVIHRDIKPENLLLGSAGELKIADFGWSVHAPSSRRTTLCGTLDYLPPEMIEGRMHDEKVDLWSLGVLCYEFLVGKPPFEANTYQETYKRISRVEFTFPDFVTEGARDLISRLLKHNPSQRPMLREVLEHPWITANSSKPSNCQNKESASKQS
Protocol: as §1, §2
Aurora2: whole recombinant protein comprising an N-terminal histidine tail, was expressed in E. coli and purified to more than 82%.
as §3, §4, §5, §6, §7

T1 sequence (Q02763 776-1124): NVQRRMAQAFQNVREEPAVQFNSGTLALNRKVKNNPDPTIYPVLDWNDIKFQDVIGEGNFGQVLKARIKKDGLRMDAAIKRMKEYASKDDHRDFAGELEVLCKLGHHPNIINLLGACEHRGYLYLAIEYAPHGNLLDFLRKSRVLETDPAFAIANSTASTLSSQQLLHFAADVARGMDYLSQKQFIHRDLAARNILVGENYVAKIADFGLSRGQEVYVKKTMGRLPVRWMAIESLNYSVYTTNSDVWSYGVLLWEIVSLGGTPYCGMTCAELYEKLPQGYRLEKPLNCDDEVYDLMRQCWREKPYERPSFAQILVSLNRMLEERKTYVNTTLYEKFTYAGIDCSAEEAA
T3 sequence (Q96GD4 whole entry, species assumed): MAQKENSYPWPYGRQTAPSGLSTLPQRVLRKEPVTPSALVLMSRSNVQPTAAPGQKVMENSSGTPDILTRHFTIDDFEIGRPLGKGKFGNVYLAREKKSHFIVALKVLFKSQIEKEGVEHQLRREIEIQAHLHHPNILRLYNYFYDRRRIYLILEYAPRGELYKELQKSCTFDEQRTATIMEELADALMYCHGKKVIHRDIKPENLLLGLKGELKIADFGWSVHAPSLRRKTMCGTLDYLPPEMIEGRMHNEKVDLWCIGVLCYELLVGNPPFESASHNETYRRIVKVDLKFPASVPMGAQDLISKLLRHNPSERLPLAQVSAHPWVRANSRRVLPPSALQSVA
T3 sequence (Q9NQS7 835-903 partner limits assumed, species assumed): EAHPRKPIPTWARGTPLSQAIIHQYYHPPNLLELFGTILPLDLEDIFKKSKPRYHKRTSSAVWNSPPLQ

Compound | IC50 [1] [nM] | IC50 [2] [nM] | IC50 [3] [nM] | IC50 [4] [nM]
CN1CCCN(Cc2ccc(C(=O)Nc3n[nH]c4sc(C(=O)NN(C)c5ccc(Cl)cc5)cc34)cc2)CC1 [Example 12b, 4-(4-methylperhydro-1,4-diazepin-1-ylmethyl)-N-[5-(N′-(4-chlorophenyl)-N′-methylhydrazinocarbonyl)-1H-thieno[2,3-c]pyrazol-3-yl]benzamide] | 218 | 40 | 151 | 68
CN1CCN(c2ccc(C(=O)Nc3n[nH]c4sc(C(=O)NN5CCCCC5)cc34)cc2)CC1 [Example 31, N-(piperidin-1-yl)-3-[4-(4-methylpiperazin-1-yl)benzoylamino]-1H-thieno[2,3-c]pyrazole-5-carboxamide] | 3060 | 275 | 96 | 26
CN1CCN(c2ccc(C(=O)Nc3n[nH]c4sc(C(=O)NNCc5ccccc5)cc34)cc2)CC1 [Example 32, N-[5-(N′-benzylhydrazinocarbonyl)-1H-thieno[2,3-c]pyrazol-3-yl]-4-(4-methylpiperazin-1-yl)benzamide] | 38 | 109 | 25 | 4
COc1ccc(C(=O)Nc2n[nH]c3sc(C(=O)NNCc4ccccc4)cc23)cc1 [Example 26, N-[5-(N′-benzylhydrazinocarbonyl)-1H-thieno[2,3-c]pyrazol-3-yl]-4-methoxybenzamide] | 175 | 75 | 42 | 23
CN(NC(=O)c1cc2c(NC(=O)c3ccc(CN4CCC4)cc3)n[nH]c2s1)c1ccccc1 [Example 19, 4-azetidin-1-ylmethyl-N-[5-(N′-methyl-N′-phenylhydrazinocarbonyl)-1H-thieno[2,3-c]pyrazol-3-yl]benzamide] | 888 | 239 | 304 | 26
CC1CN(Cc2ccc(C(=O)Nc3n[nH]c4sc(C(=O)NN(C)c5ccccc5)cc34)cc2)CC(C)N1 (centres unmarked) [Example 11a, 4-(3,5-dimethylpiperazin-1-ylmethyl)-N-[5-(N′-methyl-N′-phenylhydrazinocarbonyl)-1H-thieno[2,3-c]pyrazol-3-yl]benzamide] | 520 | 156 | 178 | 31
CN1CCCN(Cc2ccc(C(=O)Nc3n[nH]c4sc(C(=O)NN(C)c5ccccc5)cc34)cc2)CC1 [Example 12a, 4-(4-methylperhydro-1,4-diazepin-1-ylmethyl)-N-[5-(N′-methyl-N′-phenylhydrazinocarbonyl)-1H-thieno[2,3-c]-pyrazol-3-yl]benzamide] | 564 | 126 | 128 | 31
COc1ccc(C(=O)Nc2n[nH]c3sc(C(=O)NNc4ccccc4)cc23)cc1 [Example 1] | 117 | 177 | 8 | 8

The remaining lines, values ahead:

IC50 [1] [nM] | IC50 [2] [nM] | IC50 [3] [nM] | IC50 [4] [nM] | Compound
230 | 93 | 335 | 35 | CN(NC(=O)c1cc2c(NC(=O)c3ccc(CN4CCCCC4)cc3)n[nH]c2s1)c1ccc(Cl)cc1 [Example 17b, N-[5-(N′-(4-chlorophenyl)-N′-methylhydrazinocarbonyl)-1H-thieno[2,3-c]-pyrazol-3-yl]-4-piperidin-1-ylmethylbenzamide]
369 | 109 | 155 | 75 | CN(C)CCN(C)Cc1ccc(C(=O)Nc2n[nH]c3sc(C(=O)NN(C)c4ccc(Cl)cc4)cc23)cc1 [Example 20b, N-{5-[N′-(4-chlorophenyl)-N′-methylhydrazinocarbonyl]-1H-thieno[2,3-c]pyrazol-3-yl}-4-{[(2-dimethylaminoethyl)methylamino]methyl}benzamide]
842 | 347 | 190 | 70 | CN(C)CCN(C)Cc1ccc(C(=O)Nc2n[nH]c3sc(C(=O)NN(C)c4ccccc4)cc23)cc1 [Example 20a, 4-{[(2-dimethylaminoethyl)methylamino]methyl}-N-[5-(N′-methyl-N′-phenylhydrazinocarbonyl)-1H-thieno[2,3-c]pyrazol-3-yl]benzamide]

Reference: patent US7595320B2, “Hydrazinocarbonyl-thieno[2,3-C]pyrazoles, process for preparing them, compositions containing them and use thereof” (Aventis Pharma S.A., priority 2005, dated 2009)
